Test results published in patent US20260070945A1, “MACROCYCLIC IMMUNOMODULATORS” (Bristol-Myers Squibb Company, priority 2022, published 2026).
*1 amine or outer side, *2 acyl side, *3 side chain or, on linkers, in order; H or OH if unused. Where a SMILES comes first, the peptide text is derived from it. Bridges are numbered along the chain shown (N, C = ends). [ ]: non-standard residue; d: D form. The star is where a group is joined. ξ: configuration not given here. Phe(3-CF3) = N[C@@H](Cc1cccc(C(F)(F)F)c1)C(=O)O; Phe(4-COOH) = N[C@@H](Cc1ccc(C(=O)O)cc1)C(=O)O; Bip = N[C@@H](Cc1ccc(-c2ccccc2)cc1)C(=O)O; NH(CH2)14COOH = O=C(O)CCCCCCCCCCCCCCN*; Phe(3-Me) = Cc1cccc(C[C@H](N)C(=O)O)c1; γGlu = O=C(O)[C@H](CCC(=O)[*:2])N[*:1]; NH(CH2)12COOH = O=C(O)CCCCCCCCCCCCN*; Val(3-OH) = CC(C)(O)[C@H](N)C(=O)O; hArg = N=C(N)NCCCC[C@H](N)C(=O)O; 3Pal = N[C@@H](Cc1cccnc1)C(=O)O; 4Pal = N[C@@H](Cc1ccncc1)C(=O)O; Cha = N[C@@H](CC1CCCCC1)C(=O)O; Cit = NC(=O)NCCC[C@H](N)C(=O)O; Ile(3ξ) = CCC(C)[C@H](N)C(=O)O; Thr(3ξ) = CC(O)[C@H](N)C(=O)O; Carboxymethyl = O=C(O)C*; NMeA = CN[C@@H](C)C(=O)O; Orn = NCCC[C@H](N)C(=O)O; Aun = NCCCCCCCCCCC(=O)O; Dab = NCC[C@H](N)C(=O)O; Dap = NC[C@H](N)C(=O)O; AEEA = NCCOCCOCC(=O)O

biological target: T1, PD-1/PD-L1 interaction (PE-labeled human PD-L1-Ig binding to Jurkat cell line over-expressing human PD-1) (Homo sapiens, UniProt Q15116); assay: Jurkat-PD-1 Cell Binding High-Content Screening Assay (CBA); details: Jurkat-hPD-1 cells, PE-labeled PD-L1-Ig 20 nM final; read-out: Jurkat HPD1 PDL1 IC50
T1 construct: expressed in transfected cells; host or cells: Jurkat
T1 sequence (Q15116 25-288): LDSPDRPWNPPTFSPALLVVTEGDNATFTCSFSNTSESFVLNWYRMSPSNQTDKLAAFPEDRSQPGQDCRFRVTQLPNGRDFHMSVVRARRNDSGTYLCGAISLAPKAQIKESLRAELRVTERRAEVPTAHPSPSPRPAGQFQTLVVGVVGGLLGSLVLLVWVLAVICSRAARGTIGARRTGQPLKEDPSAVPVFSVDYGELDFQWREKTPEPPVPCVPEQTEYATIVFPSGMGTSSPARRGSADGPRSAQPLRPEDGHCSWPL
Outline: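 Jurkat cells overexpressing human PD-1 (8×10^3/well, DMEM + 10% FCS) preincubated with compound 2 h at 37 °C, then PE-labelled human PD-L1-Ig (20 nM final) for 1 h. Cells fixed in paraformaldehyde with Hoechst 33342; bound PD-L1 quantified by high-content imaging.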

Question: With `Cc1cccc(C[C@@H]2NC(=O)[C@H](CC(=O)O)NC(=O)[C@H](Cc3ccc(OCC(=O)O)cc3)NC(=O)[C@H](CCCCN)NC(=O)CSC[C@@H](C(=O)N[C@@H](CCCCN)C(=O)NCCCCCCCCCCC(=O)O)NC(=O)[C@H]([C@@H](C)O)NC(=O)[C@H](C(C)C)NC(=O)[C@H](CC3CCCCC3)NC(=O)[C@H](CCN)NC(=O)[C@@H](CC(C)C)NC(=O)[C@H](C)N(C)C(=O)[C@H](Cc3ccc(OCC(=O)O)cc3)NC(=O)[C@H](Cc3ccc(-c4ccccc4)cc3)NC(=O)[C@H](Cc3ccc(C(=O)O)cc3)NC2=O)c1` [Example 1226] ({CH2CO}-KY(Carboxymethyl)D[Phe(3-Me)][Phe(4-COOH)][Bip]Y(Carboxymethyl)[NMeA][dL][Dab][Cha]VTCK[Aun]-OH; thioether N-14) as the molecule, how does the IC50 read?
Answer: The IC50 was 80.6 nM.

Question: Which IC50 does the source give for `CC(=O)NCCCC[C@@H]1NC(=O)[C@H](C(C)(C)O)NC(=O)[C@H](CC2CCCCC2)NC(=O)[C@H](CCN)NC(=O)[C@@H](CC(C)C)NC(=O)[C@H](C)N(C)C(=O)[C@H](CCCNC(N)=O)NC(=O)[C@H](Cc2ccc(-c3ccccc3)cc2)NC(=O)[C@H](Cc2ccc(C(=O)O)cc2)NC(=O)[C@H](Cc2cccc(C(F)(F)F)c2)NC(=O)[C@H](CC(=O)O)NC(=O)[C@H](Cc2ccc(OCC(=O)O)cc2)NC(=O)[C@H](Cc2ccc(C(=O)O)cc2)NC(=O)CSC[C@@H](C(=O)N[C@@H](CCN)C(=O)NCCOCCOCC(=O)N[C@@H](CCC(=O)NCCOCCOCC(=O)NCCCCCCCCCCCCC(=O)O)C(=O)O)NC1=O` [Example 1159] ({CH2CO}-[Phe(4-COOH)]Y(Carboxymethyl)D[Phe(3-CF3)][Phe(4-COOH)][Bip][Cit][NMeA][dL][Dab][Cha][Val(3-OH)]K(Ac)C[Dab][AEEA][γGlu][AEEA]-{NH(CH2)12COOH}; thioether N-14) here?
Answer: Its IC50 is 46.4 nM.

Question: With `CC(C)C[C@@H]1NC(=O)[C@H](Cc2c[nH]c3ccccc23)NC(=O)[C@H](CC(=O)O)NC(=O)[C@H](Cc2ccc(C(=O)O)cc2)NC(=O)[C@H](Cc2ccc(OCC(=O)O)cc2)NC(=O)CSC[C@@H](C(=O)N[C@@H](CCCN)C(=O)NCCCCCCCCCCC(=O)O)NC(=O)[C@H](CCC(=O)O)NC(=O)[C@H](C(C)C)NC(=O)[C@H](CC2CCCCC2)NC(=O)[C@H](CCN)NC(=O)[C@@H](CC(C)C)NC(=O)[C@H](C)N(C)C(=O)[C@H](C(C)C)NC(=O)[C@H](Cc2ccc(-c3ccccc3)cc2)NC1=O` [Example 1328] ({CH2CO}-Y(Carboxymethyl)[Phe(4-COOH)]DWL[Bip]V[NMeA][dL][Dab][Cha]VEC[Orn][Aun]-OH; thioether N-14) as the molecule, how does the IC50 read?
Answer: The IC50 was 24 nM.

Question: For `CC(C)C[C@@H]1NC(=O)[C@H](Cc2c[nH]c3ccccc23)NC(=O)[C@H](CC(=O)O)NC(=O)[C@H](Cc2ccc(OCC(=O)O)cc2)NC(=O)[C@H](Cc2ccc(OCC(=O)O)cc2)NC(=O)CSC[C@@H](C(=O)N[C@@H](CCCCN)C(=O)NCCOCCOCC(=O)NCCCCCCCCCCC(=O)O)NC(=O)[C@H](CN)NC(=O)[C@H](C(C)C)NC(=O)[C@H](CC2CCCCC2)NC(=O)[C@H](CCN)NC(=O)[C@@H](CC(C)C)NC(=O)[C@H](C)N(C)C(=O)[C@H](C(C)C)NC(=O)[C@H](Cc2ccc(-c3ccccc3)cc2)NC1=O` [Example 2154] ({CH2CO}-Y(Carboxymethyl)Y(Carboxymethyl)DWL[Bip]V[NMeA][dL][Dab][Cha]V[Dap]CK[AEEA][Aun]-OH; thioether N-14), which IC50 is on record?
Answer: The IC50 was 11 nM.

Question: With `CC(C)C[C@@H]1NC(=O)[C@H](Cc2c[nH]c3ccccc23)NC(=O)[C@H](CC(=O)O)NC(=O)[C@H](Cc2ccc(OCC(=O)O)cc2)NC(=O)[C@H](CCCCNC(=N)N)NC(=O)CSC[C@@H](C(=O)N[C@@H](C)C(=O)N[C@@H](CCCCN)C(=O)NCCCCCCCCCCCCCCC(=O)O)NC(=O)[C@H](CO)NC(=O)[C@H](C(C)C)NC(=O)[C@H](CC(C)C)NC(=O)[C@H](Cc2c[nH]cn2)NC(=O)[C@@H](CC(C)C)NC(=O)[C@H](C)N(C)C(=O)[C@H](C(C)C)NC(=O)[C@H](Cc2ccc(-c3ccccc3)cc2)NC1=O` [Example 2003] ({CH2CO}-[hArg]Y(Carboxymethyl)DWL[Bip]V[NMeA][dL]HLVSCAK-{NH(CH2)14COOH}; thioether N-14) as the molecule, how does the IC50 read?
Answer: The IC50 was 290 nM.

Question: For `Cc1cccc(C[C@@H]2NC(=O)[C@H](CC(=O)O)NC(=O)[C@H](Cc3ccc(C(=O)O)cc3)NC(=O)[C@H](Cc3ccc(OCC(=O)O)cc3)NC(=O)CSC[C@@H](C(=O)N[C@@H](CCCN)C(=O)NCCCCCCCCCCC(=O)O)NC(=O)[C@H](CO)NC(=O)[C@H](C(C)C)NC(=O)[C@H](CC3CCCCC3)NC(=O)[C@H](CN)NC(=O)[C@@H](CC(C)C)NC(=O)[C@H](C)N(C)C(=O)[C@H](C(C)C)NC(=O)[C@H](Cc3ccc(-c4ccccc4)cc3)NC(=O)[C@H](CC(C)C)NC2=O)c1` [Example 2189] ({CH2CO}-Y(Carboxymethyl)[Phe(4-COOH)]D[Phe(3-Me)]L[Bip]V[NMeA][dL][Dap][Cha]VSC[Orn][Aun]-OH; thioether N-14), which IC50 is on record?
Answer: Its IC50 is 28.9 nM.

Question: `CC(C)C[C@@H]1NC(=O)[C@H](Cc2c[nH]c3ccccc23)NC(=O)[C@H](CC(=O)O)NC(=O)[C@H](Cc2ccncc2)NC(=O)[C@H](Cc2ccc(OCC(=O)O)cc2)NC(=O)CSC[C@@H](C(=O)N[C@@H](CCCCN)C(=O)NCCCCCCCCCCC(=O)O)NC(=O)[C@H](CN)NC(=O)[C@H](C(C)C)NC(=O)[C@H](CC2CCCCC2)NC(=O)[C@H](CCN)NC(=O)[C@@H](CC(C)C)NC(=O)[C@H](C)N(C)C(=O)[C@H](C(C)C)NC(=O)[C@H](Cc2ccc(-c3ccccc3)cc2)NC1=O` [Example 1349] ({CH2CO}-Y(Carboxymethyl)[4Pal]DWL[Bip]V[NMeA][dL][Dab][Cha]V[Dap]CK[Aun]-OH; thioether N-14) was tested. Which IC50 did it give?
Answer: Its IC50 is 15.8 nM.

Question: With `CC(C)C[C@H]1NC(=O)[C@H](C)N(C)C(=O)[C@H](Cc2ccc(OCC(=O)O)cc2)NC(=O)[C@H](Cc2ccc(-c3ccccc3)cc2)NC(=O)[C@H](Cc2ccc(OCC(=O)O)cc2)NC(=O)[C@H](Cc2c[nH]c3ccccc23)NC(=O)[C@H](CC(=O)O)NC(=O)[C@H](Cc2ccc(OCC(=O)O)cc2)NC(=O)[C@H]([C@@H](C)O)NC(=O)CSC[C@@H](C(=O)N[C@@H](CCN)C(=O)NCCOCCOCC(=O)NCCCCCCCCCCC(=O)O)NC(=O)[C@H]([C@@H](C)O)NC(=O)[C@H](C(C)C)NC(=O)[C@H](CC2CCCCC2)NC(=O)[C@H](CCN)NC1=O` [Example 1390] ({CH2CO}-TY(Carboxymethyl)DWY(Carboxymethyl)[Bip]Y(Carboxymethyl)[NMeA][dL][Dab][Cha]VTC[Dab][AEEA][Aun]-OH; thioether N-14) as the molecule, how does the IC50 read?
Answer: Its IC50 is 27.3 nM.

Question: For `CCC(C)[C@@H]1NC(=O)[C@H](Cc2ccc(-c3ccccc3)cc2)NC(=O)[C@H](C(C)C)NC(=O)[C@H](Cc2cccc(C)c2)NC(=O)[C@H](CC(=O)O)NC(=O)[C@H](Cc2ccc(OCC(=O)O)cc2)NC(=O)[C@H](CCCNC(=N)N)NC(=O)CSC[C@@H](C(=O)N[C@H](CC(N)=O)C(=O)NCCCCCCCCCCC(=O)O)NC(=O)[C@H](C(C)O)NC(=O)[C@H](C(C)C)NC(=O)[C@H](CC2CCCCC2)NC(=O)[C@H](CCN)NC(=O)[C@@H](CC(C)C)NC(=O)[C@H](C)N(C)C1=O` (stereo partly drawn) [Example 2298] ({CH2CO}-RY(Carboxymethyl)D[Phe(3-Me)]V[Bip][Ile(3ξ)][NMeA][dL][Dab][Cha]V[Thr(3ξ)]C[dN][Aun]-OH; thioether N-14), which IC50 is on record?
Answer: The IC50 was 24.7 nM.

Question: With `CCC(C)[C@@H]1NC(=O)[C@H](Cc2ccc(-c3ccccc3)cc2)NC(=O)[C@H](C(C)C)NC(=O)[C@H](Cc2c[nH]c3ccccc23)NC(=O)[C@H](CC(=O)O)NC(=O)[C@H](Cc2ccc(OCC(=O)O)cc2)NC(=O)[C@H](C(C)O)NC(=O)CSC[C@@H](C(=O)NCCOCCOCC(=O)N[C@@H](CCCCN)C(=O)NCCCCCCCCCCC(=O)O)NC(=O)[C@H](CO)NC(=O)[C@H](C(C)C)NC(=O)[C@H](CC2CCCCC2)NC(=O)[C@H](CCN)NC(=O)[C@@H](CC(C)C)NC(=O)[C@H](C)N(C)C1=O` (stereo partly drawn) [Example 2030] ({CH2CO}-[Thr(3ξ)]Y(Carboxymethyl)DWV[Bip][Ile(3ξ)][NMeA][dL][Dab][Cha]VSC[AEEA]K[Aun]-OH; thioether N-14) as the molecule, how does the IC50 read?
Answer: The IC50 was 13.2 nM.

Question: `Cc1cccc(C[C@@H]2NC(=O)[C@H](CC(=O)O)NC(=O)[C@H](Cc3cccnc3)NC(=O)[C@H](CC(N)=O)NC(=O)CSC[C@@H](C(=O)N[C@@H](CCN)C(=O)NCCCCCCCCCCC(=O)O)NC(=O)[C@H]([C@@H](C)O)NC(=O)[C@H](C(C)C)NC(=O)[C@H](CC3CCCCC3)NC(=O)[C@H](CCN)NC(=O)[C@@H](CC(C)C)NC(=O)[C@H](C)N(C)C(=O)[C@H](Cc3ccc(O)cc3)NC(=O)[C@H](Cc3ccc(-c4ccccc4)cc3)NC(=O)[C@H](C(C)C)NC2=O)c1` [Example 1323] ({CH2CO}-N[3Pal]D[Phe(3-Me)]V[Bip]Y[NMeA][dL][Dab][Cha]VTC[Dab][Aun]-OH; thioether N-14) was tested. Which IC50 did it give?
Answer: The IC50 was 99.4 nM.

same assay, conditions: PE-labeled PD-L1-Ig 20 nM final, Jurkat-hPD-1 cells; read-out: Jurkat HPD1 PDL1 IC50

Question: `CCC(C)[C@@H]1NC(=O)[C@H](Cc2ccc(-c3ccccc3)cc2)NC(=O)[C@H](CC(C)C)NC(=O)[C@H](Cc2c[nH]c3ccccc23)NC(=O)[C@H](CC(=O)O)NC(=O)[C@H](Cc2ccc(OCC(=O)O)cc2)NC(=O)[C@H](Cc2ccc(OCC(=O)O)cc2)NC(=O)CSC[C@@H](C(=O)N[C@@H](CCN)C(=O)NCCOCCOCC(=O)NCCCCCCCCCCC(=O)O)NC(=O)[C@H](Cc2cnc[nH]2)NC(=O)[C@H](C(C)(C)O)NC(=O)[C@H](CC2CCCCC2)NC(=O)[C@H](CCN)NC(=O)[C@@H](CC(C)C)NC(=O)[C@H](C)N(C)C1=O` (stereo partly drawn) [Example 2515] ({CH2CO}-Y(Carboxymethyl)Y(Carboxymethyl)DWL[Bip][Ile(3ξ)][NMeA][dL][Dab][Cha][Val(3-OH)]HC[Dab][AEEA][Aun]-OH; thioether N-14) was tested. Which IC50 did it give?
Answer: The IC50 was 3.1 nM.
